This assay addresses T1, human FXR (NR1H4) (Homo sapiens, UniProt Q96RI1).
T1 construct: host or cells: CHO (Chinese hamster ovary) reporter cells
T1 sequence (Q96RI1 1-486): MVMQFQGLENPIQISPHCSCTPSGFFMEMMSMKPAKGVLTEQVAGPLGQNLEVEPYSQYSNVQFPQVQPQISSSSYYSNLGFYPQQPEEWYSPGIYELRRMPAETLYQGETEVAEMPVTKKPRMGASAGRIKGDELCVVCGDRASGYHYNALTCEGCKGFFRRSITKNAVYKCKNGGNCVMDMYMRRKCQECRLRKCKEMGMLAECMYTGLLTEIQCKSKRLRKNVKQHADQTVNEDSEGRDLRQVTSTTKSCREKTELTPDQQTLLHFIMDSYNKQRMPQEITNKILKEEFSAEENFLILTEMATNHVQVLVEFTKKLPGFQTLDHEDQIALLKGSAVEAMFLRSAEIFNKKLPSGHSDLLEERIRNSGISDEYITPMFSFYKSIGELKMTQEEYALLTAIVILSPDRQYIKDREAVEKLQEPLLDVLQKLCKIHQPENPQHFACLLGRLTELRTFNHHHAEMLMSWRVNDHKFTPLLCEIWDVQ
The experiment in a line: Human FXR (NR1H4) Assay: Gal4 promoter driven luciferase reporter transactivation in CHO cells (Indigo Bioscience kit IB00601). As to Efficacy (%): efficacy normalized to CDCA set as 100%. Conditions: for Emax: CHO, read-out: Efficacy (%); for EC50: Human FXR (NR1H4) reporter assay, potency ranges. The assay is classed as cell-based. The text has this: Human FXR (NR1H4) Assay Determination of a ligand mediated Gal4 promoter driven transactivation to quantify ligand binding mediated activation of FXR. FXR Reporter Assay kit purchased from Indigo Bioscience (Catalogue number: IB00601) to determine the potency and efficacy of compound developed by Enanta that can induce FXR activation. The principle application of this reporter assay system is to quantify functional activity of human FXR. The assay utilizes non-human mammalian cells, CHO (Chinese hamster ovary) cells engineered to express human NR1H4 protein (referred to as FXR). Reporter cells also incorporate the cDNA encoding beetle luciferase which catalyzes the substrates and yields photon emission. Luminescence intensity of the reaction is quantified using a plate-reading luminometer, Envision. Reporter Cells include the luciferase reporter gene functionally linked to an FXR responsive promoter. Thus, quantifying changes in luciferase expression in the treated reporter cells provides a sensitive surrogate measure of the changes in FXR activity. […] The assay is according to the manufacturer's instructions. In brief, the assay was performed in white, 96 well plates using final volume of 100 ul containing cells with different doses of compounds. Retrieve Reporter Cells from −80° C. storage. Perform a rapid thaw of the frozen cells by transferring a 10 ml volume of 37° C. cell recovery medium into the tube of frozen cells. Recap the tube of Reporter Cells and immediately place it in a 37° C. water bath for 5-10 minutes. Retrieve the tube of Reporter Cell Suspension from the water bath. Sanitize the outside surface of the tube with a 70% alcohol swab, and then transfer it into the cell culture hood. Dispense 90 μl of cell suspension into each well of the 96-well Assay Plate. Transfer the plate into 37° C. incubator, allowing the cells adherent to the bottom of the well. Dilute compounds in Dilution Plate (DP), and administrate to cells at Assay Plate (AP). DMSO content of the samples was kept at 0.2%. Cells were incubated for additional 22 hours before luciferase activities were measured. Thirty minutes before intending to quantify FXR activity, remove Detection Substrate and Detection Buffer from the refrigerator and place them in a low-light area so that they may equilibrate to room temperature. Remove the plate's lid and discard all media contents by ejecting it into an appropriate waste container. Gently tap the inverted plate onto a clean absorbent paper towel to remove residual droplets. Cells will remain tightly adhered to well bottoms. Add 100 ul of luciferase detection reagent to each well of the assay plate. Allow the assay plate to rest at room temperature for at least 5 minutes following the addition of LDR. Set the instrument (Envision) to perform a single 5 second “plate shake” prior to reading the first assay well. Read time may be 0.5 second (500 mSec) per well.

Some results are limits rather than exact numbers.

With `CN(C)S(=O)(=O)NC(=O)c1ccc2nc(N3C4CCC3CC(NCc3c(-c5c(Cl)cccc5Cl)noc3C3CC3)C4)sc2c1` (single isomer, unassigned) [Example 225], the Emax was determined as 126% and the EC50 was less than 1 nM.
For the compound `CC(C)(C)c1ccc(S(=O)(=O)NC(=O)c2ccc3nc(N4C5CCC4CC(NCc4c(-c6c(Cl)cccc6Cl)noc4C4CC4)C5)sc3c2)cc1` (single isomer, unassigned) [Example 262], the Emax was 289% and the EC50 is less than 1 nM.
The matching figures for `CCOC(=O)c1ccc2nc(N3[C@@H]4CC[C@H]3C[C@@H](NCc3c(-c5c(Cl)cccc5Cl)noc3C3CC3)C4)sc2c1` [Example 1, ethyl 2-((1R,3R,5S)-3-(((5-cyclopropyl-3-(2,6-dichlorophenyl)isoxazol-4-yl)methyl)amino)-8-azabicyclo[3.2.1]octan-8-yl)benzo[d]thiazole-6-carboxylate]: 74% and more than 1000 nM.
The matching figures for `O=C(O)c1ccc2nc(N3[C@@H]4CC[C@H]3C[C@@H](NCc3c(-c5c(Cl)cccc5Cl)noc3C3CC3)C4)sc2c1` [Example 2, 2-((1R,3R,5S)-3-(((5-cyclopropyl-3-(2,6-dichlorophenyl)isoxazol-4-yl)methyl)amino)-8-azabicyclo[3.2.1]octan-8-yl)benzo[d]thiazole-6-carboxylic acid]: 244% and 1 to 100 nM.
Consider `COC(=O)c1cc(F)c2nc(N3C4CCC3CC(NCc3c(-c5c(Cl)cccc5Cl)noc3C3CC3)C4)sc2c1` (stereo not shown) [Example 3], for which the Emax was found to be 137% and the EC50 was in the range of 1 to 100 nM.
On the same counts, the results for `O=C(O)c1cc(F)c2nc(N3[C@@H]4CC[C@H]3C[C@@H](NCc3c(-c5c(Cl)cccc5Cl)noc3C3CC3)C4)sc2c1` [Example 4, 2-((1R,3R,5S)-3-(((5-cyclopropyl-3-(2,6-dichlorophenyl)isoxazol-4-yl)methyl)amino)-8-azabicyclo[3.2.1]octan-8-yl)-4-fluorobenzo[d]thiazole-6-carboxylic acid] are 169% and less than 1 nM.
Turning to `COC(=O)c1cc(OC)c2nc(N3C4CCC3CC(NCc3c(-c5c(Cl)cccc5Cl)noc3C3CC3)C4)sc2c1` (stereo not shown) [Example 5], the Emax was found to be 145% and the EC50 lay in the range of 1 to 100 nM.
`COc1cc(C(=O)O)cc2sc(N3C4CCC3CC(NCc3c(-c5c(Cl)cccc5Cl)noc3C3CC3)C4)nc12` (stereo not shown) [Example 6]: the Emax was 153% and the EC50 is less than 1 nM.
The matching figures for `COC(=O)c1cc(C)c2nc(N3C4CCC3CC(NCc3c(-c5c(Cl)cccc5Cl)noc3C3CC3)C4)sc2c1` (stereo not shown) [Example 7]: 37% and 1 to 100 nM.
On the same counts, the results for `Cc1cc(C(=O)O)cc2sc(N3C4CCC3CC(NCc3c(-c5c(Cl)cccc5Cl)noc3C3CC3)C4)nc12` (stereo not shown) [Example 8] are 109% and less than 1 nM.
On the same counts, the results for `COC(=O)c1ccc2nc(N3C4CCC3CC(NCc3c(-c5c(Cl)cccc5Cl)noc3C3CC3)C4)oc2c1` (stereo not shown) [Example 19] are 78% and 100 to 1000 nM.
For the compound `O=C(O)c1ccc2nc(N3C4CCC3CC(NCc3c(-c5c(Cl)cccc5Cl)noc3C3CC3)C4)oc2c1` (stereo not shown) [Example 20], the Emax worked out at 56% and the 50% effective concentration (EC50) lay in the range of 1 to 100 nM.
The matching figures for `COC(=O)c1ccc2cc(N3[C@@H]4CC[C@H]3C[C@@H](NCc3c(-c5c(Cl)cccc5Cl)noc3C3CC3)C4)ccc2c1` [Example 49, methyl 6-((1R,3R,5S)-3-(((5-cyclopropyl-3-(2,6-dichlorophenyl)isoxazol-4-yl)methyl)amino)-8-azabicyclo[3.2.1]octan-8-yl)-2-naphthoate]: 135% and 1 to 100 nM.
In the case of `O=C(O)c1ccc2cc(N3C4CCC3CC(NCc3c(-c5c(Cl)cccc5Cl)noc3C3CC3)C4)ccc2c1` (stereo not shown) [Example 50], the Emax worked out at 186% and the EC50 was less than 1 nM.
On the same counts, the results for `COC(=O)c1ccc2nc(N3C4CCC3CC(NCc3c(-c5c(Cl)cccc5Cl)noc3C3CC3)C4)cnc2c1` (stereo not shown) [Example 64] are 40% and 1 to 100 nM.
Turning to `CC(C)(C)OC(=O)CNC(=O)c1cc(F)c2nc(N3C4CCC3CC(NCc3c(-c5c(Cl)cccc5Cl)noc3C3CC3)C4)sc2c1` [Example 95, tert-butyl (2-((1R,3r,5S)-3-(((5-cyclopropyl-3-(2,6-dichlorophenyl)isoxazol-4-yl)methyl)amino)-8-azabicyclo[3.2.1]octan-8-yl)-4-fluorobenzo[d]thiazole-6-carbonyl)glycinate], the Emax was 128% and the 50% effective concentration (EC50) lay in the range of 1 to 100 nM.
On the same counts, the results for `O=C(O)CNC(=O)c1cc(F)c2nc(N3C4CCC3CC(NCc3c(-c5c(Cl)cccc5Cl)noc3C3CC3)C4)sc2c1` (stereo not shown) [Example 96] are 136% and 1 to 100 nM.
The matching figures for `O=C(O)c1ccc(N2C3CCC2CC(NCc2c(-c4c(Cl)cccc4Cl)noc2C2CC2)C3)c(F)c1` [Example 122, 4-((1R,3r,5S)-3-(((5-cyclopropyl-3-(2,6-dichlorophenyl)isoxazol-4-yl)methyl)amino)-8-azabicyclo[3.2.1]octan-8-yl)-3-fluorobenzoic acid]: 90% and 1 to 100 nM.
On the same counts, the results for `O=C(O)c1ccc(N2C3CCC2CC(NCc2c(-c4c(Cl)cccc4Cl)noc2C2CC2)C3)nc1` (stereo not shown) [Example 125] are 86.5% and 1 to 100 nM.
For the compound `Fc1cc(-c2nn[nH]n2)ccc1N1C2CCC1CC(NCc1c(-c3c(Cl)cccc3Cl)noc1C1CC1)C2` (stereo not shown) [Example 138], the Emax was found to be 155% and the concentration giving a half-maximal response (EC50) is less than 1 nM.
On the same counts, the results for `CC(C)(C)Oc1ccc(S(=O)(=O)NC(=O)OCc2ccc3nc(N4C5CCC4CC(NCc4c(-c6c(Cl)cccc6Cl)noc4C4CC4)C5)sc3c2)cc1` (stereo not shown) [Example 153] are 113% and 1 to 100 nM.
For the compound `CCOC(=O)c1ccc2nc(N3[C@@H]4CC[C@H]3C[C@@H](N(C)Cc3c(-c5c(Cl)cccc5Cl)noc3C3CC3)C4)sc2c1` [Example 165, ethyl 2-((1R,3R,5S)-3-(((5-cyclopropyl-3-(2,6-dichlorophenyl)isoxazol-4-yl)methyl)(methyl)amino)-8-azabicyclo[3.2.1]octan-8-yl)benzo[d]thiazole-6-carboxylate], the Emax turned out to be 236% and the half-maximal effective concentration (EC50) was in the range of 1 to 100 nM.
With `CCOC(=O)c1ccc2nc(N(C)C3CCC(OCc4c(-c5c(Cl)cccc5Cl)noc4C4CC4)CC3)sc2c1` (stereo not shown) [Example 169], the Emax was determined as 38% and the half-maximal effective concentration (EC50) was more than 1000 nM.
The matching figures for `CN(c1nc2ccc(C(=O)O)cc2s1)C1CCC(OCc2c(-c3c(Cl)cccc3Cl)noc2C2CC2)CC1` (stereo not shown) [Example 170]: 105% and 100 to 1000 nM.
Take `O=C(O)c1ccc2nc(N3CCN(Cc4c(-c5c(Cl)cccc5Cl)noc4C4CC4)CC3)sc2c1` [Example 172]: the Emax is 257% and the EC50 was 100 to 1000 nM.
On the same counts, the results for `CCOC(=O)c1ccc2nc(N3CCC(NCc4c(-c5c(Cl)cccc5Cl)noc4C4CC4)CC3)sc2c1` [Example 173] are 116% and more than 1000 nM.
The matching figures for `O=C(O)c1ccc2nc(N3CCC(NCc4c(-c5c(Cl)cccc5Cl)noc4C4CC4)CC3)sc2c1` [Example 174]: 132% and 1 to 100 nM.
The matching figures for `O=C(O)c1ccc2nc(N3C4CCC3CN(Cc3c(-c5c(Cl)cccc5Cl)noc3C3CC3)C4)sc2c1` [Example 176]: 228% and 100 to 1000 nM.
Regarding `O=C(O)c1ccc2nc(N3[C@@H]4CC[C@H]3C[C@H](NCc3c(-c5c(Cl)cccc5Cl)noc3C3CC3)C4)sc2c1` [Example 178], the Emax is 108% and the EC50 was more than 1000 nM.

Usually EC50 stands for the concentration needed to bring the measured effect to its halfway point. High values mean weaker potency, low ones greater potency.

These data come from patent publication US10450306B2, “Isoxazole analogs as FXR agonists and methods of use thereof” (Enanta Pharmaceuticals, Inc., priority 2016, dated 2019).
